PubChem BioAssay (NCI)
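Interpolation was linear, between the two tested concentrations surrounding the appropriate level; five concentrations were tested over 48 hours in 96-well plates. TGI is the concentration that stops growth completely.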

What was measured:
Assay in all cases: NCI tumour cell line growth inhibition, 48 h
SK-MEL-5 melanoma = test system: SK-MEL-5 melanoma
UO-31 renal = test system: UO-31 renal
T-47D breast = test system: T-47D breast
OVCAR-5 ovarian = test system: OVCAR-5 ovarian
K-562 leukemia = test system: K-562 leukemia
M14 melanoma = test system: M14 melanoma
MDA-MB-231 breast = test system: MDA-MB-231 breast
HS 578T breast = test system: HS 578T breast
RXF 393 renal = test system: RXF 393 renal
HCC-2998 colon = test system: HCC-2998 colon
HOP-62 NSCLC = test system: HOP-62 NSCLC
DU-145 prostate = test system: DU-145 prostate
SK-OV-3 ovarian = test system: SK-OV-3 ovarian
HCT-15 colon = test system: HCT-15 colon
COLO 205 colon = test system: COLO 205 colon
OVCAR-8 ovarian = test system: OVCAR-8 ovarian
HCT-116 colon = test system: HCT-116 colon
SF-295 CNS = test system: SF-295 CNS

SMILES | TGI (SK-MEL-5 melanoma) [µM] | TGI (UO-31 renal) [µM] | TGI (T-47D breast) [µM] | TGI (OVCAR-5 ovarian) [µM] | TGI (K-562 leukemia) [µM] | TGI (M14 melanoma) [µM] | TGI (MDA-MB-231 breast) [µM] | TGI (HS 578T breast) [µM] | TGI (RXF 393 renal) [µM] | TGI (HCC-2998 colon) [µM] | TGI (HOP-62 NSCLC) [µM] | TGI (DU-145 prostate) [µM] | TGI (SK-OV-3 ovarian) [µM] | TGI (HCT-15 colon) [µM] | TGI (COLO 205 colon) [µM] | TGI (OVCAR-8 ovarian) [µM] | TGI (HCT-116 colon) [µM] | TGI (SF-295 CNS) [µM]
COc1cc(/C=C2\N=C(c3ccccc3)N(/N=C/c3cc4cc(C)ccc4nc3Cl)C2=O)ccc1O | > 100 | > 100 | > 100 | > 100 | > 100 | > 100 | > 100 | > 100 | > 100 | > 100 | > 100 | > 100 | > 100 | > 100 | > 100 | > 100 | 51.8 | > 100
COC(=O)C1(Cc2ccccc2C)Cc2ccc(C)cc2C1=O (stereo unspecified) | 32.1 | > 100 | > 100 | > 100 | > 100 | > 100 | > 100 | > 100 | 96.4 | > 100 | > 100 | > 100 | > 100 | > 100 | 38.1 | > 100 | > 100 | > 100
CSC(=S)Nc1cc(C)ccn1 | 46.5 | > 100 | > 100 | > 100 | > 100 | > 100 | 88.8 | > 100 | > 100 | > 100 | > 100 | > 100 | > 100 | > 100 | > 100 | > 100 | > 100 | > 100
CCC1c2[nH]c3ccccc3c2C[C@H]2C(=O)NC(Cc3ccccc3)C(=O)N12 (stereo partly specified) | 35.5 | > 100 | 73.1 | 65.7 | > 100 | 86.1 | 46.2 | 47.9 | 53.6 | 62.1 | > 100 | > 100 | > 100 | > 100 | 39 | > 100 | 57.1 | 57.8
CC(C)(C)OC(=O)N1CCC[C@H]1CSC[C@@H]1CCCN1C(=O)OC(C)(C)C | 32.7 | 74.9 | 80.7 | > 100 | 84.7 | 38.2 | > 100 | 79.3 | 69 | > 100 | > 100 | > 100 | > 100 | 92.4 | 30.5 | > 100 | 78.5 | > 100
CCC/C(Cl)=N/OC(=O)Nc1cccc(F)c1 | 20.4 | 23.3 | 6.34 | 36.3 | 8.87 | 14.7 | 27.7 | > 63.1 | 20.5 | 30.4 | 29.9 | 31.6 | 31 | 4.1 | 3.98 | 37.4 | 18.6 | 32.5
Cc1ccc2c(c1)C(=O)c1ccc(C)nc1C2=O | 26.7 | > 100 | > 100 | > 100 | > 100 | > 100 | > 100 | > 100 | > 100 | 97.1 | > 100 | > 100 | > 100 | 39 | > 100 | > 100 | 42.1 | > 100
